Data on one molecule can be found in patent US20240342184A1, “USE OF ENHANCER 3C1 IN PREPARATION OF ENHANCER FOR INTERACTION BETWEEN FXR AND CASPASE 8” (CHINA PHARMACEUTICAL UNIVERSITY, priority 2021, published 2024).

The target of series [1] is T1, interaction between FXR protein and Caspase 8 protein (Homo sapiens, UniProt Q14790+Q96RI1).
T1 construct: endogenous in cells; host or cells: L02 human hepatocyte cell line
Nature of the series: Co-IP/Western blot of the FXR-Caspase 8 interaction in apoptotic L02 hepatocytes. The format is cell-based. As to conditions: L02 cells, ActD/TNFα-induced apoptosis, 3C1 at 1, 10, 100 μM for 2 h, FIG. 3. On the procedure:
A human hepatocyte cell line L02 was cultured in a complete DMEM containing 10% FBS, and placed in a culture incubator containing 5% CO2 for culturing at 37° C., and cells in a logarithmic growth phase were inoculated in a 12-well plate at a density of 2×10^5 cells/well. After 24 h, an apoptosis model was constructed by means of human tumor necrosis factor-related apoptosis-inducing ligand (TRAIL), Actinomycin D (ActD)/tumor necrosis factor alpha (TNFα), and cycloheximide (CHX)/Fas ligand (FasL) methods respectively. Cells were treated with TRAIL at 50 ng/ml for 0, 2, 4, 8, 12, and 24 h, respectively. […] Cells were incubated with ActD/TNFα for 0, 1, 2, 4, 8, and 12 h, respectively. […] Cells were incubated with […] for 0, 2, 4, and 8 h, respectively.
1) Cells were washed twice with pre-chilled phosphate-buffered saline (PBS), an appropriate amount of pre-chilled PBS was added for the last time, a pre-chilled cell scraper was used to scrape the cells from a culture dish or a culture flask, and a suspension was transferred to a 1.5 ml electropolished (EP) tube. […] A protein concentration was determined through a bicinchoninic acid (BCA) assay. […]

The next series deals with C57BL/6 mice. The experiment in a line: CCl4-induced liver injury of mice. The format is in vivo, mouse. As to conditions: CCl4-injected C57BL/6 mice, 3C1 at 5 or 10 mg/kg/day i.p. The method, then: Before the experiment, C57BL/6 mice were acclimated for one week under the conditions of, room temperature at 22-26° C. and relative humidity of 40-60%, with light alternated with darkness for 12 h. Each mouse was housed in a separate cage with free access to water and food, and their body weights were maintained at 20-22 g. Experimental groups included a blank control group, a model group, a low-dose 3C1 administration group (5 mg/kg), and a high-dose 3C1 administration group (10 mg/kg).
The C57BL/6 mice in the low-dose 3C1 administration group and the high-dose 3C1 administration group were pre-administered with intraperitoneal injections of 3C1 at a dose of 5 mg/kg/day or 10 mg/kg/day, and the mice in other groups were subject to vehicle control. 3 days later, liver injury was induced by intraperitoneal injections of CCl4, and the control group was administered with mineral oil. The mice were euthanized 48 h later. Blood and livers of the mice were collected.
After standing at room temperature for 0.5 h, whole blood was centrifuged at 8000 rpm for 10 min, and a supernatant was transferred to a new electropolished (EP) tube to obtain serum. Alanine transaminase (ALT) and aspartate transaminase (AST) were detected according to instructions of ALT and AST assay kits.
1) 20 mg of a liver tissue sample from each mouse was weighed, 1.0 ml of RNAiso Plus was added, the samples were homogenized, and a homogenate was transferred to a centrifuge tubes, kept standing at room temperature for 5 min, and centrifuged at 4° C. and 12000 g for 5 min.
2) 800 μl of a supernatant was transferred, 160 μl of chloroform was added, and a mixture obtained was vigorously shaken for 15 sec, and then centrifuged at 12000 g for 15 min after standing at room temperature for 5 min. A sample included three layers: a bottom layer as a yellow organic phase, an upper layer as a colorless aqueous phase, and an intermediate layer.
3) 300 μl of the upper aqueous phase was carefully transferred to a new tube, 300 μl of isopropanol was added, after inverting and mixing, a mixture obtained stood at room temperature for 10 min, and after centrifugation at 12000 g for 10 min, the supernatant was discarded.
An RNA precipitate was washed with 1.0 ml of pre-chilled 75% ethanol and then centrifuged at 12000 g for 5 min, and a supernatant was discarded to obtain total RNA, which was reconstituted with 20 μl of DEPC water and diluted to […] after quantification.
According to a system ratio indicated in the specification, the RNA solution and kit components were prepared into a system with a total volume of 20 μl, and a programmed temperature was set for reverse transcription. Specific ratio requirements were as follows:
The PCR system is as follows:
Wuhan Servicebio Co., Ltd. was entrusted to complete H&E staining and Sirius Red staining.

In series [2] the target is T1, interaction between FXR protein and Caspase 8 protein. The experiment in a line: Co-IP/Western blot of the FXR-Caspase 8 interaction in healthy L02 hepatocytes. The format is cell-based. As to conditions: 3C1 at 1, 10, 100 μM for 2 h, FIG. 2. On the procedure: 1) Cells were washed twice with pre-chilled phosphate-buffered saline (PBS), an appropriate amount of pre-chilled PBS was added for the last time, a pre-chilled cell scraper was used to scrape the cells from a culture dish or a culture flask, and a suspension was transferred to a 1.5 ml electropolished (EP) tube. After centrifugation at 4° C. and 4000 rpm for 5 min, a supernatant was discarded, an appropriate amount of an NP40 lysis buffer was added, a mixture obtained was shaken evenly, and the cells were ultrasonicated for a total of 3 times (5 s per time) until the cells were completely lysed. After centrifugation at 4° C. and 14000 g for 10 min, a supernatant was transferred to a new EP tube, to obtain a protein lysis buffer. A protein concentration was determined through a bicinchoninic acid (BCA) assay.
2) 25 μl of Protein A Beads was taken and blocked with 5% bovine serum albumin (BSA) for 1 h at room temperature, and then washed with the PBS for 3 times, and a supernatant was discarded after centrifugation at 14000 g for 1 min each time. The protein lysis buffer with a uniform concentration was added to the Beads, rocking-turn was performed at 4° C. for 1 h, and a sample was pre-cleared. After centrifugation at 14000 g for 1 min, a supernatant was transferred to a new EP tube. […]

Series [3] relates to human hepatocyte cell line L02. Nature of the series: MTT cell viability assay in induced hepatocyte apoptosis models. As to conditions: 3C1 at 1, 10, 100 μM, L02 cells. The format is cell-based. On the procedure:
A human hepatocyte cell line L02 was cultured in complete medium DMEM containing 10% fetal bovine serum (FBS), and placed in a culture incubator containing 5% CO2 at 37° C., and cells in a logarithmic growth phase were inoculated in a 96-well plate at a density of 5×10^3 cells/well. The cells were transfected at 50 nM after 24 h. Hepatocyte apoptosis was induced 48 h later after the transfection. […]
In addition to an apoptosis reagent, the compound 3C1 of different concentrations (1 μM, 10 μM, and 100 μM) was administered.
After the time of administration, 20 μl of MTT (5 mg/ml) was added to each well, the cells were further incubated at 37° C. for 4 h, a culture medium was aspirated and discarded, 150 μl of dimethyl sulfoxide (DMSO) was added to each well, incubation was performed at 37° C. for 10 min, and the absorbance was measured at 490 nm.

T1 sequence (Q96RI1 whole entry): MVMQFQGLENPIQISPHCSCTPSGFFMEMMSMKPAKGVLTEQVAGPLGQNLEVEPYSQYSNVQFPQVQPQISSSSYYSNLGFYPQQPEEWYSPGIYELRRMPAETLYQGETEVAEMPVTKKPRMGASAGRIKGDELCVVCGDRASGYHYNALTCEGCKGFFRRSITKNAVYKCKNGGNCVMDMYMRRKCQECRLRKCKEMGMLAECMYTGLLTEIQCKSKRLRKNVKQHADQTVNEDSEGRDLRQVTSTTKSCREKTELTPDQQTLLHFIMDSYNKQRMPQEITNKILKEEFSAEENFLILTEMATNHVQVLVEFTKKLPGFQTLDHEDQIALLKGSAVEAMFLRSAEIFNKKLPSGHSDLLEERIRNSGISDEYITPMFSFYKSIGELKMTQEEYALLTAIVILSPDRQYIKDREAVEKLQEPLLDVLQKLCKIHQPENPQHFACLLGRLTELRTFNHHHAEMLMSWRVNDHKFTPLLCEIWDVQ
T1 sequence (Q14790 217-479): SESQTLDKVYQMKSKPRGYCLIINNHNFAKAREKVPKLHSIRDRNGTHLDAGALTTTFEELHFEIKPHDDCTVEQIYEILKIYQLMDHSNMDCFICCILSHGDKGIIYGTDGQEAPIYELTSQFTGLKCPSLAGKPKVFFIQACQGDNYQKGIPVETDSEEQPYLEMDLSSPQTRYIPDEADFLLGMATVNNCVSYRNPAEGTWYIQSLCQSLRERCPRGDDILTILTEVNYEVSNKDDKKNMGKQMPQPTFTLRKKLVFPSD

`Cc1n[nH]c(=S)nc1Nc1ccc(F)c(Cl)c1` [Compound 3C1]: in series [1], the “interaction between FXR protein and Caspase 8 protein in apoptotic hepatocytes” value was “could reverse this reduction”. Also, in the series on C57BL/6 mice (FIG. 5A), the “serum ALT level” value is “significantly reduced the elevated levels”. In addition, the “serum AST level” value in the series on C57BL/6 mice (FIG. 5B) is listed as “significantly reduced the elevated levels”. Moreover, the “liver pathology, H&E staining” value with C57BL/6 mice (FIG. 5C) was “significant remission in the disorders of liver lobule structures, decreased infiltration of inflammatory cell, and less collagen fibers in the portal area”. The “liver pathology, Sirius Red staining (red collagen fibers)” value with C57BL/6 mice (FIG. 5D) is on record as “hyperplasia of red collagen fibers in the livers was significantly alleviated”. Moreover, the “liver Timp1 mRNA level” value with C57BL/6 mice (RT-PCR, P<0.001, FIG. 5E) was “significantly reduced their mRNA levels (P<0.001) in a dose-dependent manner”. The “liver Timp2 mRNA level” value in the series on C57BL/6 mice (RT-PCR, P<0.001, FIG. 5F) was “significantly reduced their mRNA levels (P<0.001) in a dose-dependent manner”. Besides, in series [2], the “interaction between FXR protein and Caspase 8 protein in healthy cells” value was “obviously enhanced the interaction between FXR protein and Caspase 8 protein in healthy cells in a dose-dependent manner”. Besides, the “anti-apoptotic effect (cell viability, MTT)” value in series [3] (ActD 30 min then TNFα 20 ng/ml for 8 h), in series [3] (CHX 50 μM 30 min then FasL 50 ng/ml for 8 h) and in series [3] (TRAIL 50 ng/ml for 24 h) was “significant anti-apoptotic effects” each time.
